In patent US20260028410A1, “TREATMENT OF GRAFT VERSUS HOST DISEASES USING ANTI-CD122 ANTIBODY” (FORTE SUBSIDIARY, INC., priority 2023, published 2026):

Legend:
[1] = biological target: T1, Intermediate-affinity heterodimeric IL-βγ receptor (Homo sapiens, UniProt P14784+P31785); conditions: ligand affinity for IL-βγ receptor (CD122/CD132); cited from earlier work
T1 sequence (P14784 27-551): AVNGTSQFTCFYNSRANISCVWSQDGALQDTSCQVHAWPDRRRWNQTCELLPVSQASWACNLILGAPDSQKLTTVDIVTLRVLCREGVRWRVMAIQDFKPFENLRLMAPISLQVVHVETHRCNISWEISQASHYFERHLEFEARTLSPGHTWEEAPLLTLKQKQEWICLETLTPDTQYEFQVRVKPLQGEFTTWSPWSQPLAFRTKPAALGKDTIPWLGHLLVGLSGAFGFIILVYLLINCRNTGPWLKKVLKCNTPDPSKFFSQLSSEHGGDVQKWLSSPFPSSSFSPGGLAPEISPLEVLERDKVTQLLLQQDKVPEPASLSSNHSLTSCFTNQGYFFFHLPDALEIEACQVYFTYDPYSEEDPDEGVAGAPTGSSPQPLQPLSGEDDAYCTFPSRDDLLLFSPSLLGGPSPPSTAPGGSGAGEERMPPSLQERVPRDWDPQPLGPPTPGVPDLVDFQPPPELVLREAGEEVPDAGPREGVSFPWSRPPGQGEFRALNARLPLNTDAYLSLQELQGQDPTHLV
T1 sequence (P31785 23-369): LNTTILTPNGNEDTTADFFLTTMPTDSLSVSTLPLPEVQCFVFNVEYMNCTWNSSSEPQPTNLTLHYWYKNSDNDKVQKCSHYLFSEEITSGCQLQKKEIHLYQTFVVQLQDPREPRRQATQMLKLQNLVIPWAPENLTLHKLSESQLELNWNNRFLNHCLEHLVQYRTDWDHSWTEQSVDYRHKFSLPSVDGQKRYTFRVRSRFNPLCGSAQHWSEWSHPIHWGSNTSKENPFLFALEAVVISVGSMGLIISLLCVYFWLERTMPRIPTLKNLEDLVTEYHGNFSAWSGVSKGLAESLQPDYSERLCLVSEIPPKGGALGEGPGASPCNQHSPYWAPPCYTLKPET

[2] = biological target: high-affinity heterotrimer IL-αβγ receptor; conditions: ligand affinity for IL-αβγ receptor combinations; cited from earlier work
[3] = tested on: human T and NK cell-mediated aGvHD (xenograft GvHD mouse model); assay: Acute GvHD xenograft mouse model, dose-ranging of Antibody 1 (Example 1), survival; format: in vivo, NCG-hIL-15 mice transplanted with human PBMCs; conditions: Day 14; 60 mcg each twice daily oral D5-D14; n=10
Description: A xenograft GvHD mouse model was utilized to study human T and NK cell-mediated aGvHD and the therapeutic effects of anti-CD122 antibody treatment therein. Female NCG-hIL-15 mice were irradiated at a dosage of 100 cGy on Day 1 of the protocol and human peripheral blood mononuclear cells (PBMCs) were transplanted via injection at a dosage of 1×10^7 cells/200 μL/mice via IV administration into the irradiated mice. PBMCs are immune cells that originate in the bone marrow and are secreted into the peripheral circulation forming critical components of the immune system. PBMCs are involved in humoral and cell-mediated immune function. […] Groups of 10 mice were used for each test category. A vehicle group (n=10) served as a negative control with no treatment administered (only a combination of vehicle treatments) following transplant. A positive control group (n=10) of mice treated with 60 mcg each of ruxolitinib twice daily by oral administration was included in the study design. Ruxolitinib-treated animals were treated via oral administration of ruxolitinib twice daily on D5, D6, D7, D8, D9, D10, D11, D12, D13, and D14. Three groups of Antibody 1 treated animals (n=10 for each group) were tested using a) 75 milligram per kilogram of body weight (mpk) of antibody, b) 125 mpk of antibody, and c) 175 mpk of antibody, respectively. […]

[4] = tested on: human T and NK cell-mediated aGvHD (xenograft GvHD mouse model); assay: Acute GvHD xenograft mouse model, single vs combination therapy with Antibody 1 (Example 2), survival; format: in vivo, NCG-hIL-15 mice transplanted with human PBMCs; conditions: ruxolitinib 60 mpk twice-daily oral, Antibody 1 75 mpk once-daily IP, D5-D18
Description: (§1) A xenograft GvHD mouse model was utilized to study human T and NK cell-mediated aGvHD and the therapeutic effects of anti-CD122 antibody treatment in single or combination therapy approaches. Female NCG-hIL-15 mice were irradiated at a dosage of 100 cGy on Day 1 of the protocol and human peripheral blood mononuclear cells (PBMCs) were transplanted via injection at a dosage of 1×10^7 cells/200 μL/mice via IV administration into the irradiated mice according to the same xenograft GvHD mouse model design as in Example 1.
Treatment according to 3 different grouping of animals was begun on Day 5 following transplant, as shown in the study design of FIG. 3. Groups of 10 mice were used for each test category. A single treatment group, Group #1, (n=10) received ruxolitinib (at a dosage of 60 mpk) twice-daily by oral administration beginning on Day 5 and ending on Day 18. Days of treatment were D5, D6, D7, D8, D9, D10, D11, D12, D13, D14, D15, D16, D17, and D18. A combination therapy group, Group #2, (n=10) received ruxolitinib (at a dosage of 60 mpk) twice-daily by oral administration beginning on Day 5 and ending on Day 18. Days of treatment using ruxolitinib in Group #2 were D5, D6, D7, D8, D9, D10, D11, D12, D13, D14, D15, D16, D17, and D18. Group #2 animals separately received treatment with Antibody 1 (anti-CD122 antibody as described herein) at a dosage of 75 mpk once-daily by IP administration. Days of treatment using Antibody 1 in Group #2 were D5, D6, D7, D8, D9, D10, D11, D12, D13, D14, D15, D16, D17, and D18. A vehicle group, Group #3, (n=10) served as a negative control with vehicle-only administered following transplant received twice daily oral placebo (vehicle only) beginning on Day 5 and ending on Day 18. Days of oral placebo treatment were D5, D6, D7, D8, D9, D10, D11, D12, D13, D14, D15, D16, D17, and D18. […]
(§2) Day 18 was the end of study day for all treatment groups. Animals from all treatment groups were assessed daily beginning on Day 1 and ending on Day 18 for survival following transplant. […]

[5] = tested on: human T and NK cell-mediated aGvHD (xenograft GvHD mouse model); assay: Acute GvHD xenograft mouse model, single vs combination therapy with Antibody 2 or Antibody 3 (Example 5), survival; format: in vivo, NCG-hIL-15 mice transplanted with human PBMCs
Description: as §1
Treatment according to 3 different grouping of animals was begun on Day 5 following transplant, as shown in the study design of FIG. 5. Groups of a sufficient number of mice were used for each test category in order to evaluate a significant difference between test groups. A single treatment group, Group #1, received ruxolitinib (at a dosage of 60 mpk) twice-daily by oral administration beginning on Day 5 and ending on Day 18. Days of treatment are D5, D6, D7, D8, D9, D10, D11, D12, D13, D14, D15, D16, D17, and D18. A combination therapy group, Group #2, received ruxolitinib (at a dosage of 60 mpk) twice-daily by oral administration beginning on Day 5 and ending on Day 18. Days of treatment using ruxolitinib in Group #2 were D5, D6, D7, D8, D9, D10, D1I, D12, D13, D14, D15, D16, D17, and D18. Group #2 animals separately receive anti-CD122 antibody therapy (at a dosage of 75 mpk) once-daily by IP administration. Days of treatment using anti-CD122 antibody in Group #2 were D5, D6, D7, D8, D9, D10, D11, D12, D13, D14, D15, D16, D17, and D18. A vehicle group, Group #3, served as a negative control with vehicle-only administered following transplant received twice daily oral placebo (vehicle only) beginning on Day 5 and ending on Day 18. Days of oral placebo treatment were D5, D6, D7, D8, D9, D10, D11, D12, D13, D14, D15, D16, D17, and D18. […]
as §2

| Compound | Kd [1] | Kd [2] | survival at study conclusion [3] | survival rate at the end of the study ([4]; Day 18, n=10) | Average survival time ([4]; up to Day 18, Mean ± SD) | Median survival ([4]; up to Day 18) | survival on Day 18 ([5]; Day 18, ruxolitinib 60 mpk twice-daily oral, anti-CD122 antibody 75 mpk once-daily IP, D5-D18, n=10) | Median survival ([5]; aGvHD xenograft mice, treatment Day 5 to Day 18 (ruxolitinib 60 mpk twice-daily oral; anti-CD122 antibody 75 mpk once-daily IP), followed to Day 18) | Average survival time ([5]; aGvHD xenograft mice, treatment Day 5 to Day 18 (ruxolitinib 60 mpk twice-daily oral; anti-CD122 antibody 75 mpk once-daily IP), followed to Day 18, Mean ± SD) |
| --- | --- | --- | --- | --- | --- | --- | --- | --- | --- |
| IL15: cytokine interleukin 15 | ~1000 pM | ~10 pM | – | – | – | – | – | – | – |
| N#CC[C@H](C1CCCC1)n1cc(-c2ncnc3[nH]ccc23)cn1 [ruxolitinib] | – | – | 60% | 30% | 16.3 ± 3.4 days | 17.5 days | 0% | 14 days | 13.20 ± 0.93 days |
